According to ChEMBL document CHEMBL1201862, “PubChem BioAssay data set” (2004):
Values belong to the compound of their own block, whether it stands above or below them. Active and inactive are the calls of the source.

Legend:
[1] = biological target: Cytochrome P450 3A4 (Homo sapiens, UniProt P08684); conditions: Potency;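 also: confirmatory qHTS run detecting inhibitors and substrates of CYP3A4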
[2] = biological target: Glyceraldehyde-3-phosphate dehydrogenase (Homo sapiens, UniProt P04406)
[3] = biological target: 5-hydroxytryptamine receptor 5A (Homo sapiens, UniProt P47898); test: Counterscreen for agonists of OPRM1-OPRD1 heterodimerization: luminescence-based cell-based high throughput dose response assay to identify agonists of 5-hydroxytryptamine (serotonin) 5A receptor (HTR5A). [Related pubchem assays (depositor defined):AID504326, AID504355, AID504692, AID504904, AID504905]; assay type: functional
Sequence of 5-hydroxytryptamine receptor 5A (P47898 whole entry): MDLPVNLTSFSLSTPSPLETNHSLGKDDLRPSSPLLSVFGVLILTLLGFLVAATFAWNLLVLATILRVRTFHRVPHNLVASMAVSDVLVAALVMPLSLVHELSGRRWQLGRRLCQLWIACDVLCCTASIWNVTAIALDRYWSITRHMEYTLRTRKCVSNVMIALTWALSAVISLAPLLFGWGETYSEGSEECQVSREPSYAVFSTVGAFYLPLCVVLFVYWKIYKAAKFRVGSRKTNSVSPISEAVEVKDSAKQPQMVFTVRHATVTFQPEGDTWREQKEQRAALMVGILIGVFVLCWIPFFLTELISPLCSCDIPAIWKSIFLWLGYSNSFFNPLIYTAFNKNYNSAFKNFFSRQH

[4] = biological target: Mu-type opioid receptor (Homo sapiens, UniProt P35372); test: (§1) Counterscreen for agonists of heterodimerization of the mu 1 (OPRM1) and delta 1 (OPRD1) opioid receptors: Luminescence-based cell-based high throughput dose response assay to identify agonists of OPRM1 homodimerization.; assay type: functional
Sequence of Mu-type opioid receptor (P35372 whole entry): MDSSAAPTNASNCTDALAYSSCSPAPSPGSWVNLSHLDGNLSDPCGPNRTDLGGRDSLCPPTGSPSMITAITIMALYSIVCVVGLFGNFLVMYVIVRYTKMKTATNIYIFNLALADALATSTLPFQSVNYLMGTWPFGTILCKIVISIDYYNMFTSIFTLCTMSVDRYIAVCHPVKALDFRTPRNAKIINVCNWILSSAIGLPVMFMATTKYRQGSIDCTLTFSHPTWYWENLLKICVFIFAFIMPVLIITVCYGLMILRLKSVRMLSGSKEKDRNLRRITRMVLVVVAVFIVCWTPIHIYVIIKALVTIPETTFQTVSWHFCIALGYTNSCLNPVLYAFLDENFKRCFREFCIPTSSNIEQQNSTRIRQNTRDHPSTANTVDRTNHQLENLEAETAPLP

[5] = biological target: Delta-type opioid receptor (Homo sapiens, UniProt P41143); test: as §1, with “of OPRD1” for “of OPRM1”, “homodimerization. [Related pubchem assays (depositor defined):AID504326, AID504355, AID504692, AID504904, AID504905]” for “homodimerization.”; assay type: functional
[6] = biological target: Eukaryotic translation initiation factor 4E (Mus musculus, UniProt P63073); test: blockers of eIF4G binding by eIF4E – biochemical, TR-FRET, dose response (AID 855); assay type: functional;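 also: potency for disrupting eIF4E binding to eIF4GI seen as loss of FRET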
[7] = biological target: T1, Voltage-gated N-type calcium channel alpha-1B subunit/Amyloid beta A4 precursor protein-binding family A member 1 (Homo sapiens, UniProt Q00975+Q02410); assay type: protein assay
T1 sequence (Q00975 whole entry): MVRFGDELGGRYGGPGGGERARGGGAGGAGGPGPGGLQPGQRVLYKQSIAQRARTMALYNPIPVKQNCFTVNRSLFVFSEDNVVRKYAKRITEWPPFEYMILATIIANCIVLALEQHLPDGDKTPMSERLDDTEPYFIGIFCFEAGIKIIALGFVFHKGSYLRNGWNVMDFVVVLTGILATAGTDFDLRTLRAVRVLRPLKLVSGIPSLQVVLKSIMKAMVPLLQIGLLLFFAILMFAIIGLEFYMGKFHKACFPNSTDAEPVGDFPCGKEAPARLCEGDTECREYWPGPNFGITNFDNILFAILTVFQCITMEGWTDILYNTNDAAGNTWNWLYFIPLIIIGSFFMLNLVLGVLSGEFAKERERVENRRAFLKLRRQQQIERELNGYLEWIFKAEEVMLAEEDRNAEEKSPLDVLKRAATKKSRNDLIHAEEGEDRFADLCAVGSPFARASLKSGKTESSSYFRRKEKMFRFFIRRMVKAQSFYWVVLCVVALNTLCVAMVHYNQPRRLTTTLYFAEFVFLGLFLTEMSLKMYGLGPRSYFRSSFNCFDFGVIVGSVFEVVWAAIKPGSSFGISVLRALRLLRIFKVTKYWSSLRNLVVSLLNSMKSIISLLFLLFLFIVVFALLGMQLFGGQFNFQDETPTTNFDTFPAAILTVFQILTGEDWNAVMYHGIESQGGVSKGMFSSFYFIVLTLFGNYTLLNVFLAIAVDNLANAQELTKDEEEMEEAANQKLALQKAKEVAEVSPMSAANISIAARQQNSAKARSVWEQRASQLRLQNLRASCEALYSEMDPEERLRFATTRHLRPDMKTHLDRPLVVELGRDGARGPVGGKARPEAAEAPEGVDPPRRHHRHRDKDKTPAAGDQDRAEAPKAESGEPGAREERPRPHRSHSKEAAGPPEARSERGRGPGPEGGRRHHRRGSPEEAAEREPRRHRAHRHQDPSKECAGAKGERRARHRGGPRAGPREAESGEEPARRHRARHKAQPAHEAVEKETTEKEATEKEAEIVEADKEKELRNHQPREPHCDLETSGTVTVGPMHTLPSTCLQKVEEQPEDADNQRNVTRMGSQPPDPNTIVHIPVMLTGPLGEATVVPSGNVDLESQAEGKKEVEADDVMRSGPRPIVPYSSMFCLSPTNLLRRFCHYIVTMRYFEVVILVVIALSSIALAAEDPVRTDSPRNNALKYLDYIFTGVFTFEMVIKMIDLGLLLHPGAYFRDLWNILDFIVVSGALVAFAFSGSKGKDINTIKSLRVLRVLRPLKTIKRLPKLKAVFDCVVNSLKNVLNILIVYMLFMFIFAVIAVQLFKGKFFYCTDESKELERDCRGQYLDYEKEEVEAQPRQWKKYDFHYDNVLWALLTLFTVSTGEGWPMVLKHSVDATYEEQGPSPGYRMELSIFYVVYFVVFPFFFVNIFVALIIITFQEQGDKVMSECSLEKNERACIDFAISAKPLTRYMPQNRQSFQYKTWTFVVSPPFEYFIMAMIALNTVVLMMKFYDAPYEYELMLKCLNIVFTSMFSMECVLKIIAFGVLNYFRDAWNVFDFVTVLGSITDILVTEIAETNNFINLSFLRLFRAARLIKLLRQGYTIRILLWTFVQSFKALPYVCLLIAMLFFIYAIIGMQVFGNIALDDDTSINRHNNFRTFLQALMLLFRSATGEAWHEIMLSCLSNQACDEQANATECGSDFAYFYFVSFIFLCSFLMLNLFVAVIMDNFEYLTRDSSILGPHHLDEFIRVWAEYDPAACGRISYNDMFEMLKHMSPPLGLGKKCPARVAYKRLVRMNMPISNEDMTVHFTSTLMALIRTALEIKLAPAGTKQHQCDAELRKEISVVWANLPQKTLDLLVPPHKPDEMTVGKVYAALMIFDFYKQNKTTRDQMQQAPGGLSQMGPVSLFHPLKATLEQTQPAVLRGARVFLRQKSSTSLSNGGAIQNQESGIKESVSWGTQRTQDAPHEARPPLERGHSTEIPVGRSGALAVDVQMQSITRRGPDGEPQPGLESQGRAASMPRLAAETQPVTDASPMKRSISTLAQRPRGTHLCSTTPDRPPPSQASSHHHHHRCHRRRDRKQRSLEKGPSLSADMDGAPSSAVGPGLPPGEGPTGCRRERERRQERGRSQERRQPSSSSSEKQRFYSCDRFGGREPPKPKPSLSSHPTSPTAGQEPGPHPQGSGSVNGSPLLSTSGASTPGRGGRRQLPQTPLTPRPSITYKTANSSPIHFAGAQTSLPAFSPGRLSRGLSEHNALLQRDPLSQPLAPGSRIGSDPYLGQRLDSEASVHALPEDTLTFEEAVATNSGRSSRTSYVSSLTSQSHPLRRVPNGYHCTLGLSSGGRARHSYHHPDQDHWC
T1 sequence (Q02410 whole entry): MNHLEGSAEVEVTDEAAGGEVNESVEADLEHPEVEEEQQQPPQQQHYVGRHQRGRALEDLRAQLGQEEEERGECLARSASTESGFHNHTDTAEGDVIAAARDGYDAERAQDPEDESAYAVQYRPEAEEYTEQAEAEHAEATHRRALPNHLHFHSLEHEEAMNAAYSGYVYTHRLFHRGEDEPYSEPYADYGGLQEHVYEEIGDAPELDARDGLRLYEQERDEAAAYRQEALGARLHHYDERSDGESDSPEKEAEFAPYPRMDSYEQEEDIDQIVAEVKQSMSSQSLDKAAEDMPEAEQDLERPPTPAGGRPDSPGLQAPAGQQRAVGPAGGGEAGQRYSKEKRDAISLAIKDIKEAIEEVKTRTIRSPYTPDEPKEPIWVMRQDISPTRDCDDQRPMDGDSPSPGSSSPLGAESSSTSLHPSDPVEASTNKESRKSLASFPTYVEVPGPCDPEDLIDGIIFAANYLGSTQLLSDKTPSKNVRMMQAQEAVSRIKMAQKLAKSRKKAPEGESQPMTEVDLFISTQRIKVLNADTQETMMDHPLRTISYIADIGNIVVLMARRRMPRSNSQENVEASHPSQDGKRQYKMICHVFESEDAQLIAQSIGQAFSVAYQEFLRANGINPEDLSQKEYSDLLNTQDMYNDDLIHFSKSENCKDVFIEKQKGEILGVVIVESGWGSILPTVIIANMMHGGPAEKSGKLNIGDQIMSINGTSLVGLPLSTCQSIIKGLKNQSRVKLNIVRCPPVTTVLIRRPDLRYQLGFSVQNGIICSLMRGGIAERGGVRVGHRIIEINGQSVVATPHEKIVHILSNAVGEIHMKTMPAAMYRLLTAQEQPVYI

[8] = biological target: T1, Voltage-gated N-type calcium channel alpha-1B subunit/Amyloid beta A4 precursor protein-binding family A member 1; assay type: protein assay; remark: listed apart in the source
[9] = biological target: DNA dC->dU-editing enzyme APOBEC-3A (Homo sapiens, UniProt P31941); test: Dose Response confirmation of small molecule APOBEC3A DNA Deaminase Inhibitors via a fluorescence-based single-stranded DNA deaminase assay. [Related pubchem assays (depositor defined):AID493011, AID493024]; assay type: functional
Sequence of DNA dC->dU-editing enzyme APOBEC-3A (P31941 whole entry): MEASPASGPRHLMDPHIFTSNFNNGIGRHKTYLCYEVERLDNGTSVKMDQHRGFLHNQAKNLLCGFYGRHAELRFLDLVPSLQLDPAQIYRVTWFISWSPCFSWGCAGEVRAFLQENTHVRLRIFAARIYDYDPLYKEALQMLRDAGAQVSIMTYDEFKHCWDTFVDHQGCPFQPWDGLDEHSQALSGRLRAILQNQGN

[10] = biological target: DNA dC->dU-editing enzyme APOBEC-3G (Homo sapiens, UniProt Q9HC16); assay type: functional;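 also: Dose-response counterscreen measuring inhibition of APOBEC3G DNA deaminase activity, run while confirming APOBEC3A inhibitors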

Sequence of Cytochrome P450 3A4 (P08684 whole entry): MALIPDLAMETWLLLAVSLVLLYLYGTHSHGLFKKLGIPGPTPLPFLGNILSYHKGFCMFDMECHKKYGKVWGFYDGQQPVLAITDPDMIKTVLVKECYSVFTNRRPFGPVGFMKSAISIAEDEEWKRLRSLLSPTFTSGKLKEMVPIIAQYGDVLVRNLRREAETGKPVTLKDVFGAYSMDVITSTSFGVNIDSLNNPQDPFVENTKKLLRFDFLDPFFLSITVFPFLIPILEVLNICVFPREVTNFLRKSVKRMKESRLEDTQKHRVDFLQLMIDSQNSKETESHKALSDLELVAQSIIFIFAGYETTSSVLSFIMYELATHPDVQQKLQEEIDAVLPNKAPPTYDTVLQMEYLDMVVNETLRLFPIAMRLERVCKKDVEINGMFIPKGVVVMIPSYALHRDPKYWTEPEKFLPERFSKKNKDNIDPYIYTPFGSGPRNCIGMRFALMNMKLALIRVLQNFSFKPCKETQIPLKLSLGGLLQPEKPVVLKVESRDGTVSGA
Sequence of Glyceraldehyde-3-phosphate dehydrogenase (P04406 whole entry): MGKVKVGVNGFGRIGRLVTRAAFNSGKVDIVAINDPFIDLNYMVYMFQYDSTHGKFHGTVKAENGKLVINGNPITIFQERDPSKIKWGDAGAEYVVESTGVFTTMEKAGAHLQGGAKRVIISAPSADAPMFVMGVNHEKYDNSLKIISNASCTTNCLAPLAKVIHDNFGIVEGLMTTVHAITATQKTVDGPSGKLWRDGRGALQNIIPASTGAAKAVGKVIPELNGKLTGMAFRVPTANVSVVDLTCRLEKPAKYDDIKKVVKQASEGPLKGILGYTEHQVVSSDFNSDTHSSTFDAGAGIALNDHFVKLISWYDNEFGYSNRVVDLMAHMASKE

SMILES: Cc1ccc(N)cc1Cl
- AC50 [1]: 12.6 µM (inconclusive)

SMILES: OCC1(CCc2ccccc2)CCN(Cc2ccccc2Cl)CC1
- EC50 [3]: > 92.4 µM (inactive)
- EC50 [4]: 67.6 µM (inactive)
- EC50 [5]: > 92.4 µM (inactive)

SMILES: O=C(O)c1cc(-c2ccco2)nn1-c1ccc(Cl)cc1
- IC50 [6]: 50 µM (inactive)
- IC50 [7]: 5.13 µM (active)
- IC50 [8]: 22.1 µM (active)

SMILES: C[C@H]1CN(C2=C(Cl)C(=O)N(c3ccnc(Cl)c3)C2=O)CCN1
- IC50 [2]: > 50 µM (inconclusive)

SMILES: Cc1ccccc1/C=C/c1cc[n+](C)cc1
- IC50 [9]: 2.33 µM (active)
- IC50 [10]: 3.38 µM (active)

Next, values leading:

- IC50 [2]: > 50 µM (inconclusive)
SMILES: COc1ccc(N2CCN(C3=C(Cl)C(=O)N(c4cccc(OC)c4)C3=O)CC2)cc1

- AC50 [1]: 7.94 µM (inconclusive)
SMILES: CCC1=C2CC[C@H]3C(=O)N(CC(=O)OC)C(=O)[C@H]3[C@H]2[C@@]2(C)C(=O)N(CC3CC3)C(=O)N2C1=O

- IC50 [7]: 12.4 µM (active)
- IC50 [8]: > 50 µM (inactive)
SMILES: CC(C)c1ccc(/C=C2\SC(=O)N(CC(=O)NC3CCS(=O)(=O)C3)C2=O)cc1 (centres undefined)
